Results as given in ChEMBL document CHEMBL1201862, “PubChem BioAssay data set” (2004).
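Assay format: 96-well plates, 48-hour exposure. Here, GI50 denotes the concentration required for 50% inhibition of growth.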 Activity calls are given as the source filed them. Rule as the data show it: active = GI50 up to about 1.1 µM and inactive = higher.

Tests used:
Assay in all cases: NCI anticancer screen, dose series, 48 h
[1] = system: HCT-15
[2] = system: CAKI-1
[3] = system: UACC-62
[4] = system: SNB-75
[5] = system: NCI-H460
[6] = system: SK-MEL-28
[7] = system: HOP-62
[8] = system: OVCAR-5
[9] = system: OVCAR-4
[10] = system: SNB-19
[11] = system: NCI-H522
[12] = system: ACHN
[13] = system: SF-295
[14] = system: K562
[15] = system: M14
[16] = system: Malme-3M
[17] = system: SR
[18] = system: RXF 393

Compound	GI50 [1] [µM]	GI50 [2]	GI50 [3]	GI50 [4]	GI50 [5]	GI50 [6]	GI50 [7]	GI50 [8]	GI50 [9]	GI50 [10]	GI50 [11]	GI50 [12]	GI50 [13]	GI50 [14]	GI50 [15]	GI50 [16]	GI50 [17]	GI50 [18]
Clc1ccc(C[P+](c2ccccc2)(c2ccccc2)c2ccccc2)cc1Cl	17	2.57 µM (inactive)	1.49 µM (inactive)	1.77 µM (inactive)	2.34 µM (inactive)	3.67 µM (inactive)	9.08 µM (inactive)	5.27 µM (inactive)	4.4 µM (inactive)	3.21 µM (inactive)	1.89 µM (inactive)	13.1 µM (inactive)	10.3 µM (inactive)	4.31 µM (inactive)	2.6 µM (inactive)	2.53 µM (inactive)	2.61 µM (inactive)	–
CCCCCCCCCCNC(=S)OC	24.4	28.5 µM (inactive)	25 µM (inactive)	27.4 µM (inactive)	> 100 µM (inactive)	51.2 µM (inactive)	> 100 µM (inactive)	–	47.2 µM (inactive)	59.2 µM (inactive)	20.2 µM (inactive)	33.6 µM (inactive)	55.5 µM (inactive)	29.2 µM (inactive)	63.1 µM (inactive)	69.8 µM (inactive)	13.7 µM (inactive)	33.7 µM (inactive)
Cc1cc(N(CCC#N)CCC#N)ccc1/C=C1/N=C(c2ccccc2)N(N)C1=O	> 100	98.2 µM (inactive)	99.8 µM (inactive)	21.1 µM (inactive)	–	> 100 µM (inactive)	31.9 µM (inactive)	> 100 µM (inactive)	34.8 µM (inactive)	31.1 µM (inactive)	26 µM (inactive)	> 100 µM (inactive)	46.1 µM (inactive)	53.5 µM (inactive)	> 100 µM (inactive)	> 100 µM (inactive)	–	–
CCCCc1c2c(nc3c1CCCC3=O)C(=O)CCC2	> 100	–	> 100 µM (inactive)	62.4 µM (inactive)	> 100 µM (inactive)	> 100 µM (inactive)	> 100 µM (inactive)	> 100 µM (inactive)	> 100 µM (inactive)	> 100 µM (inactive)	> 100 µM (inactive)	> 100 µM (inactive)	> 100 µM (inactive)	> 100 µM (inactive)	> 100 µM (inactive)	> 100 µM (inactive)	> 100 µM (inactive)	> 100 µM (inactive)
NCCCNCCSP(=O)(O)O [AMIFOSTINE]	> 274	> 678 µM (inactive)	> 710 µM (inactive)	> 750 µM (inactive)	> 750 µM (inactive)	> 750 µM (inactive)	> 321 µM (inactive)	> 750 µM (inactive)	> 635 µM (inactive)	> 750 µM (inactive)	389 µM (inactive)	–	> 750 µM (inactive)	> 750 µM (inactive)	–	> 335 µM (inactive)	–	> 736 µM (inactive)
CC(=O)c1cc([N+](=O)[O-])ccc1OCC(=O)O	> 100	> 100 µM (inactive)	> 100 µM (inactive)	> 100 µM (inactive)	> 100 µM (inactive)	> 100 µM (inactive)	> 100 µM (inactive)	> 100 µM (inactive)	> 100 µM (inactive)	> 100 µM (inactive)	> 100 µM (inactive)	> 100 µM (inactive)	> 100 µM (inactive)	> 100 µM (inactive)	> 100 µM (inactive)	> 100 µM (inactive)	–	> 100 µM (inactive)
CN(O)C(=O)c1ccccc1	–	> 100 µM (inactive)	> 100 µM (inactive)	> 100 µM (inactive)	> 100 µM (inactive)	> 100 µM (inactive)	> 100 µM (inactive)	> 100 µM (inactive)	> 100 µM (inactive)	> 100 µM (inactive)	> 100 µM (inactive)	> 100 µM (inactive)	> 100 µM (inactive)	> 100 µM (inactive)	> 100 µM (inactive)	> 100 µM (inactive)	> 100 µM (inactive)	> 100 µM (inactive)
OCCN1CCN(CC/C=C2/c3ccccc3Sc3ccc(Cl)cc32)CC1	13.4	10.5 µM (inactive)	2.59 µM (inactive)	3.69 µM (inactive)	5.93 µM (inactive)	1.87 µM (inactive)	16.1 µM (inactive)	17.1 µM (inactive)	17.2 µM (inactive)	20.7 µM (inactive)	16.4 µM (inactive)	16 µM (inactive)	18.4 µM (inactive)	2.56 µM (inactive)	2.3 µM (inactive)	5.33 µM (inactive)	12.1 µM (inactive)	13.1 µM (inactive)
CCCCC1(C2c3ccccc3Oc3ccccc32)C(=O)N(c2ccccc2)N(c2ccccc2)C1=O	41.3	11.6 µM (inactive)	> 89.3 µM (inactive)	86.7 µM (inactive)	47.8 µM (inactive)	> 100 µM (inactive)	> 100 µM (inactive)	> 100 µM (inactive)	60.1 µM (inactive)	82 µM (inactive)	3.79 µM (inactive)	–	> 92.7 µM (inactive)	18.9 µM (inactive)	–	> 100 µM (inactive)	–	19.9 µM (inactive)
CC1=C(C(=O)NCc2ccccc2)C(c2ccc(C3C(C(=O)NCc4ccccc4)=C(C)NC(C)=C3C(=O)NCc3ccccc3)cc2)C(C(=O)NCc2ccccc2)=C(C)N1	16.1	14 µM (inactive)	7.91 µM (inactive)	> 10 µM (inactive)	28.6 µM (inactive)	11.5 µM (inactive)	23.2 µM (inactive)	23.7 µM (inactive)	15.2 µM (inactive)	15.6 µM (inactive)	3.41 µM (inactive)	15.6 µM (inactive)	17.9 µM (inactive)	5.93 µM (inactive)	11.8 µM (inactive)	14.4 µM (inactive)	2.3 µM (inactive)	16.6 µM (inactive)
COc1ccc(-c2onc(-c3ccc([N+](=O)[O-])cc3)c2C2=NCCCN2)cc1	> 100	> 100 µM (inactive)	> 100 µM (inactive)	> 100 µM (inactive)	51.8 µM (inactive)	38.4 µM (inactive)	> 100 µM (inactive)	> 100 µM (inactive)	> 100 µM (inactive)	> 100 µM (inactive)	51.3 µM (inactive)	> 100 µM (inactive)	53.2 µM (inactive)	70.3 µM (inactive)	38.8 µM (inactive)	> 100 µM (inactive)	45.4 µM (inactive)	88.1 µM (inactive)
C=C1C2Oc3ccccc3C1N(c1ccccc1)O2 (configuration not stated)	20.8	40.8 µM (inactive)	–	43.8 µM (inactive)	20.8 µM (inactive)	58.1 µM (inactive)	66.7 µM (inactive)	80 µM (inactive)	20 µM (inactive)	49 µM (inactive)	27.2 µM (inactive)	37.2 µM (inactive)	23.1 µM (inactive)	27.4 µM (inactive)	22.1 µM (inactive)	46.7 µM (inactive)	30.5 µM (inactive)	30.9 µM (inactive)
Cn1c(/C=C/CO)c(CO)c2c1C(=O)C=C(N1CC1)C2=O [APAZIQUONE]	< 0.01	< 0.01 µM (active)	< 0.01 µM (active)	< 0.01 µM (active)	< 0.01 µM (active)	0.0198 µM (active)	< 0.01 µM (active)	< 0.0122 µM (active)	0.0516 µM (active)	< 0.01 µM (active)	0.0102 µM (active)	–	< 0.01 µM (active)	0.0195 µM (active)	–	< 0.01 µM (active)	–	< 0.01 µM (active)
CC(=O)OCc1cc(=O)n(C)c2c3c4c(cc12)c(C)cc(=O)n4CO3	1.95	1.95 µM (inactive)	1.34 µM (inactive)	1.91 µM (inactive)	0.52 µM (active)	1.64 µM (inactive)	1.2 µM (inactive)	2.73 µM (inactive)	1.42 µM (inactive)	1.61 µM (inactive)	0.711 µM (active)	–	1.57 µM (inactive)	1.14 µM (inactive)	–	0.906 µM (active)	–	1.3 µM (inactive)
CCOC(=O)c1sc(Nc2cc(Cl)ccc2Cl)nc1C	67.8	–	–	15.6 µM (inactive)	> 100 µM (inactive)	> 100 µM (inactive)	> 100 µM (inactive)	37.3 µM (inactive)	> 100 µM (inactive)	> 100 µM (inactive)	> 100 µM (inactive)	35.5 µM (inactive)	64 µM (inactive)	42.9 µM (inactive)	–	> 100 µM (inactive)	52.5 µM (inactive)	> 100 µM (inactive)
CC(C)c1cccc2sc(NC(=O)C(=O)CC(=O)c3ccc(F)cc3)nc12	> 100	> 100 µM (inactive)	> 100 µM (inactive)	59.7 µM (inactive)	> 100 µM (inactive)	> 100 µM (inactive)	> 100 µM (inactive)	> 100 µM (inactive)	> 100 µM (inactive)	> 100 µM (inactive)	> 100 µM (inactive)	> 100 µM (inactive)	> 100 µM (inactive)	> 100 µM (inactive)	> 100 µM (inactive)	> 100 µM (inactive)	–	> 100 µM (inactive)
CC(Oc1ccc(OCC2CCCCC2)cc1)C(=O)N(CCO)CCO (configuration not stated)	> 100	–	> 100 µM (inactive)	92.9 µM (inactive)	> 100 µM (inactive)	> 100 µM (inactive)	–	–	> 100 µM (inactive)	> 100 µM (inactive)	> 100 µM (inactive)	> 100 µM (inactive)	> 100 µM (inactive)	> 100 µM (inactive)	> 100 µM (inactive)	> 100 µM (inactive)	–	> 100 µM (inactive)
